Data set [1] is described as follows: stability test: storage in a vacuum bag at 25° C. in the dark, HPLC analysis. The data set is classed as physicochemical. Here is the method: The crystal of reduced coenzyme Q10 obtained in Example 1 and the crystal obtained in Comparative Example 1 were each placed in a vacuum bag, and stored at 25° C. in the dark. The weight ratio of reduced coenzyme Q10 to oxidized coenzyme Q10 was calculated by the HPLC analysis, and the results are shown in Table 1.
Conditions for HPLC Analysis:
• Chromatographic column: (Agilent) ZORBAX Extend C18 4.6×150 mm, 5 um • Mobile phase: mobile phase A: acetonitrile, mobile phase B: isopropanol, mobile phase C: methanol • Detection wavelength: 290 nm • Flow rate: 1.5 mL/min • Column temperature: 35° C. • Injection concentration: 1 mg/mL • Injection volume: 20 μL

A short description of data set [2]: solubility in purified water. The data set is classed as physicochemical. Particulars: 25° C.

Take `COc1c(O)c(C)c(C/C=C(\C)CC/C=C(\C)CC/C=C(\C)CC/C=C(\C)CC/C=C(\C)CC/C=C(\C)CC/C=C(\C)CC/C=C(\C)CC/C=C(\C)CCC=C(C)C)c(O)c1OC` [Comparative Example 1, reduced coenzyme Q10]: the “weight ratio of reduced coenzyme Q10 to oxidized coenzyme Q10: oxidized coenzyme Q10 part” value in data set [1] (day 0, vacuum bag) was found to be 0.65; in data set [1] (day 15, vacuum bag) it was 1.63; in data set [1] (day 30, vacuum bag), 5.47; in data set [1] (day 180, vacuum bag) it was 8.8; in data set [1] (day 360, vacuum bag) it was 17.0. The “weight ratio of reduced coenzyme Q10 to oxidized coenzyme Q10: reduced coenzyme Q10 part” value in data set [1] (day 0, vacuum bag) is recorded as 98.20; in data set [1] (day 15, vacuum bag), 97.10; in data set [1] (day 30, vacuum bag), 93.40; in data set [1] (day 180, vacuum bag), 89.60; in data set [1] (day 360, vacuum bag) it was 82.0.
Turning to `COc1c(O)c(C)c(C/C=C(\C)CC/C=C(\C)CC/C=C(\C)CC/C=C(\C)CC/C=C(\C)CC/C=C(\C)CC/C=C(\C)CC/C=C(\C)CC/C=C(\C)CCC=C(C)C)c(O)c1OC` [Example 2, reduced coenzyme Q10], the “solubility in purified water” value in data set [2] is 0.5 % by weight.
As to `COc1c(O)c(C)c(C/C=C(\C)CC/C=C(\C)CC/C=C(\C)CC/C=C(\C)CC/C=C(\C)CC/C=C(\C)CC/C=C(\C)CC/C=C(\C)CC/C=C(\C)CCC=C(C)C)c(O)c1OC` [Example 1, reduced coenzyme Q10], the “solubility in purified water” value in data set [2] amounted to 0.5 % by weight. Further, the “weight ratio of reduced coenzyme Q10 to oxidized coenzyme Q10: oxidized coenzyme Q10 part” value in data set [1] (day 0, vacuum bag) is 0.40; in data set [1] (day 15, vacuum bag) it was 0.50; in data set [1] (day 30, vacuum bag), 0.80; in data set [1] (day 180, vacuum bag), 1.10; in data set [1] (day 360, vacuum bag), 1.94. In addition, the “weight ratio of reduced coenzyme Q10 to oxidized coenzyme Q10: reduced coenzyme Q10 part” value is 99.18 in data set [1] (day 0, vacuum bag); 99.00 in data set [1] (day 15, vacuum bag); 98.01 in data set [1] (day 30, vacuum bag); 97.90 in data set [1] (day 180, vacuum bag); 97.33 in data set [1] (day 360, vacuum bag).

The values above are taken from patent US12516010B2, “Crystal form of reduced coenzyme Q10 and preparation method therefor” ([…] BIOTECHNOLOGY (HAINAN) CO., LTD, priority 2023, dated 2026).
